According to patent US20100041722A1, “ORGANIC COMPOUNDS” (priority 2006, published 2010):

Key:
[1] = molecular target: T1, aldosterone synthase (CYP11B2) (Homo sapiens, UniProt P19099); assay: in vitro aldosterone synthase inhibition: aldosterone production in Ang II-stimulated NCI-H295R cells; assay type: cell-based; settings: Table 1, read-out: AS IC50
T1 construct: host or cells: NCI-H295R human adrenocortical carcinoma cells
T1 sequence (P19099 25-503): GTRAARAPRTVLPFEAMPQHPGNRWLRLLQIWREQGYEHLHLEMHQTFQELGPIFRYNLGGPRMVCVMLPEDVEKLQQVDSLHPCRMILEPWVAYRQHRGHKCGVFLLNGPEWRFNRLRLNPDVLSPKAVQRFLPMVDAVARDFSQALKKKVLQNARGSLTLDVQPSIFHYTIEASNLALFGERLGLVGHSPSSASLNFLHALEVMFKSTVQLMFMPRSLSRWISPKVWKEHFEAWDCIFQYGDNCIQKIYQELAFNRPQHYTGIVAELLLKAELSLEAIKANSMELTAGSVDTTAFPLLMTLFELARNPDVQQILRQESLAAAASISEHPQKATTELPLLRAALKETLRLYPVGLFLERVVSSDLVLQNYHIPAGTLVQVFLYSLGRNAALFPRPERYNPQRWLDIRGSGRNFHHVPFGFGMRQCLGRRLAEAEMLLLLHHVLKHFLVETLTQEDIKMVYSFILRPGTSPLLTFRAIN
Excerpt: Human adrenocortical carcinoma NCl-H295R cell line is obtained from American Type Culture Collection (Manassas, Va.). Insulin/transferrin/selenium (ITS)-A supplement (100×), DMEM/F-12, antibiotic/antimycotic (100×), and fetal calf serum (FCS) are purchased from Gibco (Grand Island, N.Y.). Anti-mouse PVT scintillation proximity assay (SPA) beads and NBS 96-well plates are obtained from Amersham (Piscataway, N.J.) and Corning (Acton, Mass.), respectively. Solid black 96-well flat bottom plates are purchased from Costar (Corning, N.Y.). Aldosterone and angiotensin (Ang II) are purchased from Sigma (St. Louis, Mo.). D-[1,2,6,7-^3H(N)]aldosterone was acquired from PerkinElmer (Boston, Mass.). Nu-serum was a product of BD Biosciences (Franklin Lakes, N.J.). The NADPH regenerating system, dibenzylfluorescein (DBF), and human aromatase supersomes® are obtained from Gentest (Woburn, Mass.).
For in vitro measurement of aldosterone activity, human adrenocortical carcinoma NCl-H295R cells are seeded in NBS 96-well plates at a density of 25,000 cells/well in 100 μl of a growth medium containing DMEM/F12 supplemented with 10% FCS, 2.5% Nu-serum, 1 μg ITS/ml, and 1× antibiotic/antimycotic. The medium is changed after culturing for 3 days at 37° C. under an atmosphere of 5% CO2/95% air. On the following day, cells are rinsed with 100 μl of DMEM/F12 and incubated with 100 μl of treatment medium containing 1 μM Ang II and a compound at different concentrations in quadruplicate wells at 37° C. for 24 hr. At the end of incubation, 50 μl of medium is withdrawn from each well for measurement of aldosterone production by an RIA using mouse anti-aldosterone monoclonal antibodies.
Measurement of aldosterone activity can also be performed using a 96-well plate format. Each test sample is incubated with 0.02 μCi of D-[1,2,6,7-^3H(N)]aldosterone and 0.3 μg of anti-aldosterone antibody in phosphate-buffered saline (PBS) containing 0.1% Triton X-100, 0.1% bovine serum albumin; and 12% glycerol in a total volume of 200 μl at room temperature for 1 hr. Anti-mouse PVT SPA beads (50 μl) are then added to each well and incubated overnight at room temperature prior to counting in a Microbeta plate counter. The amount of aldosterone in each sample is calculated by comparing with a standard curve generated using known quantities of the hormone.
Full concentration-response curves of the test compound are performed at least 3 times. The IC50 values are derived using a non-linear least squares curve-fitting program from Microsoft XLfit.

[2] = molecular target: T2, CYP11B1 (steroid 11β-hydroxylase) (Homo sapiens, UniProt P15538); assay: in vitro CYP11B1 inhibition: steroid release from NCI-H295R cells; assay type: cell-based; settings: Table 1
T2 construct: Thus, the NCl-H295R cells have CYP11B1 (steroid 11 p-hydroxylase); host or cells: NCI-H295R human adrenocortical carcinoma cells
T2 sequence (P15538 25-503): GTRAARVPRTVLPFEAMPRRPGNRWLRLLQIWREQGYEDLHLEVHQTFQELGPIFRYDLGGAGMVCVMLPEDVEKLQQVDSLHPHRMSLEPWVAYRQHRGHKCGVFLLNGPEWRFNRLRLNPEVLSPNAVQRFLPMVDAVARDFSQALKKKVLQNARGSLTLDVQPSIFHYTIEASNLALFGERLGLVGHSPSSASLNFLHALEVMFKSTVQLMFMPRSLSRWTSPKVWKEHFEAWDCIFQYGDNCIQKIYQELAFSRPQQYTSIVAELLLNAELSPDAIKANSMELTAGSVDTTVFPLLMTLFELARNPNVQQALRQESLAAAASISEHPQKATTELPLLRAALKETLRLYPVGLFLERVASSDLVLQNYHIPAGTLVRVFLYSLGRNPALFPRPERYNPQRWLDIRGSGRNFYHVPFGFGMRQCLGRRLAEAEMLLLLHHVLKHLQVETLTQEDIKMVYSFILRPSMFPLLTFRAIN
Excerpt: The in vitro inhibitory activities for CYP11B1 can be determined by the following assay.
The cell line NCl-H295R was originally isolated from an adrenocortical carcinoma and has been characterized in the literature through the stimulable secretion of steroid hormones and the presence of the enymes essential for steroidogenesis. Thus, the NCl-H295R cells have CYP11B1 (steroid 11 p-hydroxylase). The cells show the physiological property of zonally undifferentiated human foetal adrenocortical cells which, however, have the capacity to produce the steroid hormones which are formed in the three, phenotypically distinguishable zones in the adult adrenal cortex. […]
The excretion of aldosterone, cortisol, corticosterone and estradiol/estrone into the culture medium can be detected and quantified by commercially available, specific monoclonal antibodies in radioimmunoassays in accordance with the manufacturer's instructions.
Inhibition of the release of certain steroids can be used as a measure of the respective enzyme inhibition by the added test compounds. The dose-dependent inhibition of enzymic activity by a compound is calculated by means of an inhibition plot which is characterized by an IC50.
The IC50 values for active test compounds are ascertained by a simple linear regression analysis in order to construct inhibition plots without data weighting. The inhibition plot is calculated by fting a 4-parameter logistic function to the raw data points using the least squares method. The equation of the 4-parameter logistic function is calculated as follows: Y=(d−a)/((1+(x/c)b))+a I where: a=minimum data level b=gradient I c=ICED d=maximum data level x=inhibitor concentration.

IC50 [1] [nM]	Compound	IC50 [2] [nM]
214	COC(=O)c1cncn1C1COc2ccccc2OC1 [LDS237, 3-(3,4-Dihydro-2H-benzo[b][1,4]dioxepin-3-yl)-3H-imidazole-4-carboxylic acid methyl ester]	
9	COC(=O)c1cn(C2Cc3ccccc3C2)cn1 [LDG688, 1-Indan-2-yl-1H-imidazole-4-carboxylic acid methyl ester]	107
378	ON=Cc1cncn1C1Cc2ccccc2C1 [LDK909, 3-Indan-2-yl-3H-imidazole-4-carbaldehyde oxime]	

Compound	IC50 [1] [nM]	IC50 [2] [nM]
Cc1noc(-c2cncn2C2Cc3ccccc3C2)n1 [LDK260, 5-(3-Indan-2-yl-3H-imidazol-4-yl)-3-methyl-[1,2,4]oxadiazole]	95	725
COC(=O)c1cncn1C1CCc2ccccc2C1 (centres unmarked) [LDI154, 3-(1,2,3,4-Tetrahydro-naphthalen-2-yl)-3H-imidazole-4-carboxylic acid methyl ester]	6	42
